The source of these data is ChEMBL document CHEMBL1201862, “PubChem BioAssay data set” (2004).

Test systems include A549; COLO 205; DU-145; EKVX; HCT-116; HOP-62; HOP-92; HT-29; KM12; MCF7; MOLT-4; RPMI-8226; SF-295; SF-539; SK-MEL-28; TK-10; UACC-257; UACC-62; UO-31; SNB-75.
What all share (experiment): inhibition of tumour cell growth, NCI panel, 48 h

Molecules are shown by their SMILES.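 Following 48 hours of exposure in 96-well plates, responses at five concentrations were used to interpolate endpoints linearly. GI50 marks 50% less growth.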 Activity calls are given as the source filed them. Rule as the data show it: active = GI50 up to about 1.1 µM and inactive = higher. Positions of bridges follow the written chain, without caps; N, C: chain ends. Residues, ends and D or L forms follow the SMILES beside them. Some results are limits rather than exact numbers.

For `SC1=NC2=C(CSC/C2=C\c2ccccc2)C(c2ccccc2)N1` (stereo not drawn), the GI50 in the experiment with A549 is 38.5 µM (inactive); with COLO 205, 37.5 µM (inactive); in the experiment on DU-145, 95.1 µM (inactive); with EKVX it was 45.5 µM (inactive); in the experiment on HCT-116 it was 29.5 µM (inactive); in the experiment on HOP-62, > 100 µM (inactive). In addition, the GI50 in the experiment with HOP-92 was 37.6 µM (inactive); in the experiment with HT-29, 32.6 µM (inactive); with KM12, 41 µM (inactive); in the experiment with MCF7, 30.9 µM (inactive); in the experiment with MOLT-4 it was 27.7 µM (inactive); with RPMI-8226, 35.2 µM (inactive). In addition, the GI50 was 21.6 µM (inactive) with SF-295; 76.6 µM (inactive) in the experiment with SF-539; > 100 µM (inactive) with SK-MEL-28; 61.8 µM (inactive) in the experiment on TK-10; 22.3 µM (inactive) in the experiment on UACC-257; 27.9 µM (inactive) in the experiment with UACC-62. Moreover, the GI50 in the experiment on UO-31 is 33.8 µM (inactive).
As for `O=C1c2cc3c(cc2CC1Br)CCC3` (stereo not drawn), the GI50 in the experiment with A549 is 18.2 µM (inactive); in the experiment with COLO 205 it was 1.97 µM (inactive); with DU-145, 16 µM (inactive); with EKVX it was 14.6 µM (inactive); with HCT-116 it was 1.53 µM (inactive); with HOP-62, 13.8 µM (inactive). For the same molecule, the GI50 in the experiment on HT-29 is 2.36 µM (inactive); in the experiment on KM12, 7 µM (inactive); in the experiment with MCF7, 2.07 µM (inactive); with MOLT-4, 0.953 µM (active); in the experiment with RPMI-8226, 1.82 µM (inactive); with SF-295 it was 5.19 µM (inactive). Besides, the GI50 in the experiment on SF-539 is 2.03 µM (inactive); with SK-MEL-28, 3.1 µM (inactive); in the experiment with SNB-75, 2.93 µM (inactive); in the experiment on TK-10, 2.75 µM (inactive); in the experiment on UACC-257 it was 2.23 µM (inactive); in the experiment on UACC-62, 3.3 µM (inactive). Besides, the GI50 in the experiment with UO-31 is 10.6 µM (inactive).
Take `C#CC[C@@H]1C(=O)N(Cc2ccc(OC)cc2)[C@@H](C(C)C)C(=O)N1Cc1ccc(OC)cc1`: the GI50 with A549 was 36.1 µM (inactive); in the experiment with COLO 205, 19.4 µM (inactive); with DU-145 it was 29.5 µM (inactive); with EKVX it was 28.4 µM (inactive); in the experiment on HCT-116, 28.1 µM (inactive); in the experiment with HOP-62, > 100 µM (inactive). Also, the GI50 in the experiment on HOP-92 was 84.3 µM (inactive); in the experiment on HT-29, 26.8 µM (inactive); in the experiment with KM12, 35.8 µM (inactive); in the experiment with MCF7, 19.8 µM (inactive); in the experiment with MOLT-4, 15.1 µM (inactive); in the experiment with SF-295 it was 54.2 µM (inactive). Moreover, the GI50 is 29.2 µM (inactive) with SF-539; 84.7 µM (inactive) in the experiment with SK-MEL-28; 24 µM (inactive) with SNB-75; 49.9 µM (inactive) with TK-10; 29.9 µM (inactive) in the experiment on UACC-257; 25.2 µM (inactive) with UACC-62. In the experiment on UO-31, the GI50 is 33.7 µM (inactive).
As to `CCN(CC)Cc1cc(Nc2c3ccccc3nc3c2[nH]c2ccccc23)cc(CN(CC)CC)c1O`, the GI50 was 0.566 µM (active) in the experiment with A549; 0.366 µM (active) with COLO 205; 1.32 µM (inactive) in the experiment on DU-145; 1.45 µM (inactive) in the experiment on EKVX; 0.33 µM (active) with HCT-116; 0.598 µM (active) in the experiment with HOP-62. Further, the GI50 with HOP-92 was 1.14 µM (inactive); in the experiment with HT-29, 0.35 µM (active); with KM12 it was 0.552 µM (active); with MCF7 it was 1.34 µM (inactive); in the experiment with SF-295 it was 1.28 µM (inactive); in the experiment on SF-539, 1.08 µM (active). For the same molecule, the GI50 in the experiment with SK-MEL-28 was 2.4 µM (inactive); with SNB-75, 1.22 µM (inactive); in the experiment on TK-10, 2.42 µM (inactive); in the experiment with UACC-257, 1.42 µM (inactive); in the experiment on UACC-62, 1.55 µM (inactive); in the experiment with UO-31 it was 1.68 µM (inactive).
On to `COc1cccc(/C=C2\S/C(=N/Nc3nc(C)c(C)s3)NC2=O)c1O`, for which the GI50 was > 100 µM (inactive) with A549; > 100 µM (inactive) with COLO 205; > 100 µM (inactive) with DU-145; 37 µM (inactive) in the experiment with EKVX; > 100 µM (inactive) in the experiment with HCT-116; > 100 µM (inactive) in the experiment on HOP-62. Moreover, the GI50 in the experiment on HOP-92 is > 100 µM (inactive); in the experiment with HT-29, > 100 µM (inactive); in the experiment on KM12 it was > 100 µM (inactive); in the experiment with MCF7, > 100 µM (inactive); with MOLT-4, 49.3 µM (inactive); in the experiment with SF-295, > 100 µM (inactive). Besides, the GI50 was > 100 µM (inactive) in the experiment on SF-539; > 100 µM (inactive) in the experiment on SK-MEL-28; > 100 µM (inactive) in the experiment on SNB-75; > 100 µM (inactive) in the experiment with TK-10; > 100 µM (inactive) in the experiment on UACC-257; 69.5 µM (inactive) with UACC-62. Further, in the experiment on UO-31, the GI50 is 74.1 µM (inactive).
For the molecule `CCCCN1C(=O)CC2[C@@H]3CCc4cc(OC(C)=O)ccc4C3CC[C@]2(C)C1=O` (stereo partly drawn), the GI50 in the experiment with A549, in the experiment on COLO 205, in the experiment on DU-145, in the experiment with EKVX, in the experiment with HCT-116 and with HOP-62 was > 10 µM (inactive) throughout. Further, the GI50 with HOP-92, in the experiment with HT-29, in the experiment on KM12, in the experiment with MCF7, in the experiment with MOLT-4 and with RPMI-8226 was > 10 µM (inactive) throughout. The GI50 in the experiment with SF-295, in the experiment with SF-539, in the experiment with SK-MEL-28, in the experiment with TK-10, in the experiment with UACC-257 and in the experiment on UACC-62 was > 10 µM (inactive) throughout. Also, the GI50 in the experiment on UO-31 is > 10 µM (inactive).
As to `Cc1cccc(NC(=S)Nc2ccccc2Cl)n1`, the GI50 with A549 was 47.6 µM (inactive); in the experiment on COLO 205, > 100 µM (inactive); in the experiment with DU-145, > 100 µM (inactive); with EKVX it was 21.9 µM (inactive); in the experiment on HCT-116, > 100 µM (inactive); in the experiment with HOP-62, 22.3 µM (inactive). Also, the GI50 was > 100 µM (inactive) in the experiment on HT-29; 25.8 µM (inactive) with KM12; > 100 µM (inactive) in the experiment with MCF7; > 100 µM (inactive) in the experiment on MOLT-4; > 100 µM (inactive) in the experiment on RPMI-8226; 32 µM (inactive) in the experiment on SF-295. In addition, the GI50 in the experiment with SF-539 is 32.1 µM (inactive); in the experiment with SK-MEL-28, > 100 µM (inactive); in the experiment on SNB-75, 19.3 µM (inactive); in the experiment with TK-10, 34.8 µM (inactive); with UACC-257, 22.2 µM (inactive); with UACC-62 it was 41 µM (inactive). In addition, in the experiment on UO-31, the GI50 was > 100 µM (inactive).
In the case of `NC(=O)CCC(NC(=O)c1cccc2c(=O)c3ccccc3[nH]c12)C(=O)O` (stereo not drawn), the GI50 with A549, in the experiment with COLO 205, in the experiment on DU-145, with EKVX, in the experiment on HCT-116 and in the experiment with HOP-62 was > 100 µM (inactive) throughout. Further, the GI50 in the experiment on HOP-92 was 77.3 µM (inactive); in the experiment with HT-29, > 100 µM (inactive); with KM12, > 100 µM (inactive); in the experiment with MCF7, > 100 µM (inactive); in the experiment on MOLT-4, > 100 µM (inactive); in the experiment with RPMI-8226, > 100 µM (inactive). The GI50 with SF-295, with SK-MEL-28, in the experiment with SNB-75, with TK-10, in the experiment with UACC-62 and with UO-31 was > 100 µM (inactive) each time.
Take `COC(=O)C1CCC(=O)NCCCCC(NC(=O)C(N)CC(=O)O)C(=O)N1` (stereo not drawn) (H-Asp-Lys-Glu-OMe; lactam 2-3; configuration not given here): the GI50 is > 100 µM (inactive) in the experiment with A549; > 100 µM (inactive) in the experiment with COLO 205; > 100 µM (inactive) in the experiment on DU-145; > 100 µM (inactive) in the experiment with EKVX; 60 µM (inactive) with HCT-116; > 100 µM (inactive) with HOP-62. The GI50 with HT-29 was > 100 µM (inactive); in the experiment with KM12, > 100 µM (inactive); in the experiment with MCF7, 62.7 µM (inactive); in the experiment on MOLT-4 it was > 100 µM (inactive); in the experiment on RPMI-8226, > 100 µM (inactive); in the experiment on SF-295, > 100 µM (inactive). Moreover, the GI50 in the experiment on SF-539 is > 100 µM (inactive); with SK-MEL-28, > 100 µM (inactive); in the experiment with SNB-75 it was 88.7 µM (inactive); in the experiment on TK-10, > 100 µM (inactive); in the experiment with UACC-257, > 100 µM (inactive); in the experiment with UACC-62 it was 28.2 µM (inactive). The GI50 in the experiment on UO-31 is > 100 µM (inactive).
Consider `Cc1nc2ccc(F)cc2c2c1CCN2c1ccc(Cl)cc1`, for which the GI50 with A549 is 17.2 µM (inactive); with COLO 205, 6.71 µM (inactive); with DU-145, 29.4 µM (inactive); with HCT-116 it was 4.52 µM (inactive); in the experiment on HOP-62 it was 13.1 µM (inactive); with HOP-92, 2.69 µM (inactive). In addition, the GI50 was 3.61 µM (inactive) in the experiment with HT-29; 11.6 µM (inactive) in the experiment on MCF7; 4.33 µM (inactive) in the experiment with SF-295; 10.5 µM (inactive) in the experiment with SF-539; 12.2 µM (inactive) in the experiment with SK-MEL-28; 39.6 µM (inactive) in the experiment with SNB-75. Besides, the GI50 was 9.4 µM (inactive) in the experiment on TK-10, 3.51 µM (inactive) in the experiment with UACC-257, 10.9 µM (inactive) in the experiment with UACC-62 and 5.45 µM (inactive) with UO-31.
As to `COc1ccc(-c2cc(-c3ccco3)c(C#N)c(=S)n2C2OC(CO)C(O)C(O)C2O)cc1` (stereo not drawn), the GI50 in the experiment on A549 is > 100 µM (inactive); in the experiment with COLO 205, > 100 µM (inactive); in the experiment with DU-145, > 10 µM (inactive); with EKVX, > 100 µM (inactive); in the experiment with HCT-116, > 100 µM (inactive); with HOP-62 it was > 100 µM (inactive). Moreover, the GI50 in the experiment with HT-29 was > 100 µM (inactive); in the experiment with KM12, > 100 µM (inactive); with MCF7, 58.6 µM (inactive); in the experiment with MOLT-4, > 100 µM (inactive); with RPMI-8226 it was > 100 µM (inactive); in the experiment on SF-295, 80.4 µM (inactive). The GI50 in the experiment on SF-539, in the experiment with SK-MEL-28, with SNB-75, in the experiment with TK-10, in the experiment on UACC-257 and with UO-31 was > 100 µM (inactive) in each case.
